Tests used:
TAK1 = target: T1, TAK1 (Homo sapiens, UniProt O43318); assay: in vitro TAK1 inhibition assay; assay type: biochemical; conditions: for TAK1 inhibitory activity, result in words: in vitro TAK1 inhibition
T1 sequence (O43318 1-303 limits assumed): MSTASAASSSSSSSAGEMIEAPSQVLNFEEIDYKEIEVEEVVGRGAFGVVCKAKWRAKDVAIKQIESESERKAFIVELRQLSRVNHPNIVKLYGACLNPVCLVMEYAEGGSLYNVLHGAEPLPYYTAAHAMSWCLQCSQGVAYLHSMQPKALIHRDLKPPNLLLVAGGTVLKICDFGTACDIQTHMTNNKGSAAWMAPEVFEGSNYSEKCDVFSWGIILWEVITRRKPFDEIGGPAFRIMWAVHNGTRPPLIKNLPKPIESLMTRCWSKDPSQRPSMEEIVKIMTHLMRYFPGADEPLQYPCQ
T1 sequence (Q15750 437-504 partner limits assumed): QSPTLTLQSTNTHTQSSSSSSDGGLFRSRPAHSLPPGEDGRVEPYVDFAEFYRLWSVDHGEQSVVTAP

85 kinases = conditions: 1 μM concentration; ref 14 (Wu et al.); cited from earlier work

Row | Structure (SMILES) | TAK1 inhibitory activity, result in words (TAK1) | also measured
1 | CC=C/C=C\C(=O)[C@@H](O)[C@@H](O)C/C=C/c1cc(OC)cc(OC)c1C(=O)OC (stereo in doubt) [Compound 10, Methyl 2-((1E,4S,5S,7Z,9Z)-4,5-dihydroxy-6-oxoundeca-1,7,9-trien-1-yl)-4,6-dimethoxybenzoate] | inability | –
2 | COc1cc(O)c2c(c1)/C=C/C[C@H](O)[C@H](O)C(=O)/C=C\C[C@H](C)OC2=O [Compound 1, (5Z)-7-oxozeaenol] | – | number of kinases with at least 50% inhibition out of 85 kinases tested (85 kinases): 12
3 | COc1cc(O)c2c(c1)/C=C/C[C@H](O)[C@H](O)[C@@H](O)/C=C/C[C@H](C)OC2=O [Compound 3, zeaenol] | loss of activity | –
4 | COc1cc(O)c2c(c1)[C@H]1O[C@@H]1C[C@H](O)[C@H](O)C(=O)CCC[C@H](C)OC2=O [Compound 5, dihydrohypothemycin] | loss of activity | –
5 | COc1cc(O)c2c(c1)/C=C/C[C@H](O)[C@H](O)C(=O)CCC[C@H](C)OC2=O [Compound 7, LL-Z164-1] | loss of activity | –
6 | COc1cc(O)cc2c1C(=O)O[C@@H](C)CCCCC/C=C/C(=O)C2 [Compound 8, greensborone C] | diminished activity | –
7 | COC1=CC(=O)C2=C(/C=C/C[C@H](O)[C@H](O)C(=O)/C=C\C[C@H](C)OC2=O)C1(F)F [Compound 11, (3S,5Z,8S,9S,11E)-13,13-Difluoro-8,9-dihydroxy-14-methoxy-3-methyl-3,4,9,10-tetrahydro-1H benzo[c][1]oxacyclotetradecine-1,7,16(8H,13H)-trione] | statistically equipotent to 1 | IC50 (TAK1): 77 nM
8 | COc1cc2c(c(O)c1Br)C(=O)O[C@@H](C)C/C=C\C(=O)[C@@H](O)[C@@H](O)C/C=C/2 [Compound 12, (3S,5Z,8S,9S,11E)-15-Bromo-8,9,16-trihydroxy-14-methoxy-3-methyl-3,4,9,10-tetrahydro-1H-benzo[c][1]oxacyclotetradecine-1,7(8H)-dione] | significantly less active | –
9 | COc1cc(O)c2c(c1Br)/C=C/C[C@H](O)[C@H](O)C(=O)/C=C\C[C@H](C)OC2=O [Compound 13, (3S,5Z,8S,9S,11E)-13-Bromo-8,9,16-trihydroxy-14-methoxy-3-methyl-3,4,9,10-tetrahydro-1H-benzo[c][1]oxacyclotetradecine-1,7(8H)-dione] | – | times less active than difluoro derivative 11 (TAK1; TAK1 inhibition, compared with 11): 5 times
10 | COc1c(Br)c(O)c2c(c1Br)/C=C/C[C@H](O)[C@H](O)C(=O)/C=C\C[C@H](C)OC2=O [Compound 14, (3S,5Z,8S,9S,11E)-13,15-Dibromo-8,9,16-trihydroxy-14methoxy-3-methyl-3,4,9,10-tetrahydro-1H-benzo[c][1]oxacyclotetradecine-1,7(8H)-dione] | least active | –
11 | COc1cc(O)c2c(c1)/C=C/C[C@@H]1OC(C)(C)O[C@@H]1C(=O)/C=C\C[C@H](C)OC2=O [Compound 16, (3aS,5Z,8S,15E,17aS)-11-Hydroxy-13-methoxy-2,2,8-trimethyl-7,8,17,17a-tetrahydro-4H-benzo[c][1,3]dioxolo[4,5-h][1]oxacyclotetradecine-4,10(3aH)-dione] | – | reduction of TAK1 inhibitory activity relative to 1 (TAK1; compared with 1): more than 30 fold
